The test system of test [1] is osteoclast proton pump. Conditions: avian osteoclast membrane vesicles, ATP-driven acidification; cited from earlier work.
The target in test [2] is bafilomycin-sensitive ATPase in chicken osteoclasts. Put plainly: Inhibition of bafilomycin-sensitive ATPase activity in purified osteoclast membrane vesicles (Pi release). In kind it is biochemical. Conditions: chicken osteoclast membranes, read-out: IC50 (μM) APase assay. On the procedure:
Preparation of crude bone microsomes from calcium-starved egg-laying hens. Vesicles were prepared from medullar bone obtained from tibiae and femurs of egg-laying hens which were calcium-starved for at least 15 days. Briefly, bone fragments were scraped with a 24 scalpel blade, suspended in 40 ml of isolation medium (0.2 M sucrose, 50 mM KCl, 10 mM Hepes, 1 mM EGTA, 2 mM dithiotheitrol, pH 7.4) and filtered through a 100 μm pore size nylon mesh. The whole procedure was performed at 4° C. After homogenisation in a potter (20 strokes) in 40 ml of isolation medium an initial centrifugation (6,500×gmax ×20 min) was performed to remove mitochondria and lysosomes. […] The protein content was determined using a Biorad colourimetric kit according to Bradford [M. Bradford, Ana. […]
Inhibition of bafilomycin-sensitive ATPase activity was assessed in purified membrane vesicles by measuring the release of inorganic phosphate (Pi) during 30 min of incubation at 37° C. in a 96-well plate either in the presence or in the absence of bafilomycin Al. […] Absorbance at 650 nm was measured after 2 min using a microplate reader. Results are expressed as μmol (Pi)×mg protein^-1 ×hour^-1 and, for each experiment, represent the mean±sem of triplicates.

In test [3] the test system is osteoclast cultures. Particulars: cited from earlier work.

The text below walks through data of patent US5985905A, “Indole derivatives for the treatment of osteoporosis” (priority 1996, dated 1999).

For `C[C@@H]1O[C@@H](O[C@H]2C[C@@H](O)[C@]3(CO)[C@H]4[C@H](O)C[C@]5(C)[C@@H](C6=CC(=O)OC6)CC[C@]5(O)[C@@H]4CC[C@]3(O)C2)[C@H](O)[C@H](O)[C@H]1O` [ouabain], the “inhibition of proton transport” value in test [1] is listed as “not inhibited”.
As to `Cc1nc2c(OCc3ccccc3)cccn2c1CC#N` [SCH 28080], the “inhibition of proton transport” value in test [1] is reported as “not inhibited”.
For `CCN1C(=O)C=CC1=O` [N-ethylmaleimide (NEM), N-ethylmaleimide], the “inhibition of proton transport” value in test [1] is reported as “inhibited”.
With `COc1ccc2[nH]c([S+]([O-])Cc3ncc(C)c(OC)c3C)nc2c1` (centres unmarked) [omeprazole], the “inhibition of proton transport” value in test [1] is reported as “not inhibited”.
Consider `O=C1OCCO/C1=C\C=C\c1cc2cc(Cl)c(Cl)cc2[nH]1` [Example 1, (2Z,4E) 3-[3-(5,6-Dichloro-1H-indol-2-yl)-2-propenyliden]-1,4-dioxan-2-one], for which the IC50 in test [2] is 8.5 µM.
As for `[Na+].[Na+].[Na+].[O]=[V]([O-])([O-])[O-]` [sodium orthovanadate], in test [1], the “inhibition of proton transport” value is listed as “not inhibited”.
Consider `CO/C1=C\C(C)=C\[C@@H](C)[C@@H](O)[C@@H](C)C/C(C)=C/C=C/[C@H](OC)[C@@H]([C@@H](C)[C@@H](O)[C@H](C)[C@@]2(O)C[C@@H](O)[C@H](C)[C@@H](C(C)C)O2)OC1=O` [bafilomycin A1], for which the “inhibition of proton transport” value in test [1] is “inhibited”. Also, the “inhibition of bone resorption” value in test [3] is listed as “able to inhibit bone resorption”.
